Reference: patent US7879853B2, “4,6-disubstituted pyrimidines and their use as protein kinase inhibitors” (Bayer Schering Pharma AG, priority 2004, dated 2011)

Assays:
[1] = biological target: T1, Akt1 (full-length Akt1, active) (Homo sapiens, UniProt P31749); assay: Biochemical Akt1 (active) assay (full-length Akt1), flashplate, Crosstide; conditions: Crosstide substrate, 100 nM ATP, 60 minutes at 30° C.; read-out: Akt1 inhibition (full-length Akt1, active): IC50
T1 construct: recombinant full-length human Akt1, containing N-terminal His6 tag; His6 (N); GST (alternative statement of the assay paragraph) (N); purchased Upstate, UK #14-276; host or cells: baculovirus infected Sf21 insect cells
Description: For the biochemical Akt1 assay recombinant full-length human Akt1, containing N-terminal His6 tag was cloned and expressed in baculovirus infected Sf21 insect cells. Akt1 is activated with GST-MAPKAP-K2 and PDK1, and repurified on Ni2+/NTA-agrose and glutathioneagarose (Upstate, UK; #14-276).
In order to study the inhibition of Akt1 (full-length version) according to the invention, a flashplate-based assay has been developed.
The full-length Akt1 assay is a biochemical assay using Akt1 N-terminally fused to GST and co-expressed with PDK1 in insect cells. The Akt1 assay is run in 96 well plates by incubating 500 ng/well GST-Akt1, 1 μM Crosstide (N-terminally biotinylated synthetic peptide (KGSGSGRPRTSSFAEG) Upstate, #12-385) as substrate, 10 μl of test compound (test compounds were dissolved as 10 mM solutions in dimethylsulfoxide (DMSO) and subsequently diluted) and 100 nM ATP (including ^33P-ATP) in 100 μl of reaction buffer (50 mM HEPES, pH7.5; 3 mM MgCl2; 3 mM MnCl2; 3 μM Na-Orthovanadat; 1 mM DTT; 1 μg/ml PEG8000) for 60 minutes at 30° C. in 96 well microtiter plates. The reactions are terminated by adding 100 μl stopping buffer (5M NaCl, 35 mM EDTA pH 8,0) for 5 minutes. 190 μl of the reaction mixture are transferred into streptavidin-coated Flashplates (Perkin Elmer, #SMP-103) and incubated for further 30 minutes at room temperature. The plates are washed 3 times by using washing buffer (0.9% NaCl). Relying on the incorporation of ^33P into the peptide substrate crosstide, the detection is based on the specific binding of the biotinylated peptide to the streptavidin-coated surface of scintillator-coated flash plates (NEN, USA; #SMP-103). This phosphorylation is measured by counting the plate for 60 sec. using a plate reader (Wallac Microbeta; Perkin Elmer, USA). The analysis of the data is performed using a biostatistical program (GraphPad Prism, USA).

[2] = test system: phosphorylated Akt1 (Ser473) in MCF7 cells; assay: Cellular PI3K/Akt pathway assay (pAkt-ELISA); assay type: cell-based; conditions: Homo sapiens, β-Heregulin (20 ng/ml) stimulation, 48 h, read-out: Akt pathway inhibition (pAkt-ELISA): IC50
Description: In order to study the cellular activity of the compounds according to the invention, an ELISA-based assay has been established. The assay is based on a Sandwich ELISA kit (PathScan™ Phospho-Akt1 (Ser473); Cell Signaling, USA; #7160).
The assay detects endogenous levels of phosphorylated Akt1 protein. A phospho-Akt (Ser473) antibody (Cell Signaling, USA; #9271) has been coated onto the microwells. After incubation with cell lysates, the phosphorylated Akt protein is captured by the coated antibody. Following extensive washing, Akt1 monoclonal antibody (Cell Signaling, USA; #2967) is added to detect the captured phospho-Akt1 protein. HRP-linked anti-mouse antibody (Cell Signaling, USA; #7076) is then used to recognize the bound detection antibody. […] The magnitude of optical density for this developed color is proportional to the quantity of phosphorylated Akt1 protein. […]
Cells are harvested under nondenaturating conditions and lysed with brief sonification in 1× cell lyses buffer (20 mM Tris (pH7.5), 150 mM NaCl, 1 mM ethylene diaminetetraacetate (EDTA), 1 mM ethylene glycolbis-(2-aminoethyl)-N,N,N′,N′-tetraacetic acid (EGTA), 1% Triton X-100, 2.5 mM sodium pyrophosphate, 1 mM β-glycerolphosphate, 1 mM Na3VO4, 1 μg/ml leupeptin). […] The absorbance is read at 450 nm (Wallac Victor2; Perkin Elmer, USA) within 30 minutes after adding STOP solution. […]

T1 sequence (P31749 whole entry): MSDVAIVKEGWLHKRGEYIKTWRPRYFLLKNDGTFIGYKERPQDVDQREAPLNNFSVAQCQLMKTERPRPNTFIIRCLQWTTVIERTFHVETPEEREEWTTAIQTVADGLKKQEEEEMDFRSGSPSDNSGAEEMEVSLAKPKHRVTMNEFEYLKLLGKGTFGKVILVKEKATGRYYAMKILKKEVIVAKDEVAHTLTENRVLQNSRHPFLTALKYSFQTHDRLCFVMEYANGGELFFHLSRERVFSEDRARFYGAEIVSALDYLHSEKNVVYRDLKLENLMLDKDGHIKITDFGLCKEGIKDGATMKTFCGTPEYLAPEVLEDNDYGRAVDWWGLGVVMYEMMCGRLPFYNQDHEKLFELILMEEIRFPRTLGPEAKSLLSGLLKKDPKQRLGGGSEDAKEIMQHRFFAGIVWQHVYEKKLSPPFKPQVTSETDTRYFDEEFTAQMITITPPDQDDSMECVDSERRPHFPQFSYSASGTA

- IC50 [1]: ≤ 1.75 µM
- IC50 [2]: 6 µM
SMILES: CC(C)(N)c1ccc(C(=O)Nc2ccc(Nc3cc(-c4cccc5c4oc4ccccc45)ncn3)cc2)cc1 [Compound 69, 4-(1-Amino-1-methyl-ethyl)-N-[4-(6-dibenzofuran-4-yl-pyrimidin-4-ylamino)-phenyl]-benzamide trifluoracetate]
